From patent publication US20050079228A1, “Clear, stable topical compositions of clarithromycin and processes for their preparation” (priority 2003, published 2005)

What was measured:
[1] = Solubility of clarithromycin in non-aqueous media on complexation with zinc salt; format: physicochemical; settings: molar ratio about 1:0.2 to about 1:2
Source text: Clarithromycin and the zinc salt are preferably combined in a molar ratio ranging from about 1:0.2 to about 1:2. This ratio permits the occurrence of effective complexation of the zinc and clarithromycin.

gram-positive bacteria = settings: disclosed in U.S. Pat. No. 4,331,803; cited from earlier work

CC[C@H]1OC(=O)[C@H](C)[C@@H](O[C@H]2C[C@@](C)(OC)[C@@H](O)[C@H](C)O2)[C@H](C)[C@@H](O[C@@H]2O[C@H](C)C[C@H](N(C)C)[C@H]2O)[C@](C)(OC)C[C@@H](C)C(=O)[C@H](C)[C@@H](O)[C@]1(C)O [clarithromycin]
Solubility of clarithromycin in a non-aqueous media [1]: increases the solubility
Antibacterial activity against gram-positive bacteria (gram-positive bacteria): strong antibacterial activity
